What is called IC50 is the concentration that inhibits the measured activity by half.

What all share (format): cell-based
Assay [1] concerns the target HER2 (A775_G776insYVMA) expressing Ba/F3 stable cell line (Homo sapiens, UniProt P04626, DUP772-775, cells depend on it). In words: Cellular proliferation (Alamar Blue) assay, HER2 (A775_G776insYVMA) Ba/F3. The note with it: HER2 (A775_G776insYVMA) Ba/F3 cells; 72 hr; Alamar Blue; read-out: YVMA IC50. How it is done:
(§1) Cell line details: • 1. EGFR(D770_N771insSVD) expressing Ba/F3 stable cell line • 2. EGFR (A767_dupASV) expressing Ba/F3 stable cell line • 3. A431 cells • 4. EGFR (H773insNPH) expressing Ba/F3 stable cell line • 5. HER2 (A775_G776insYVMA) expressing Ba/F3 stable cell line
(§2) • 1. Seed cells at 5000 for A431 and 15,000 cells for Ba/F3 in 100 μL/well in complete media (for A431: DMEM with 10% FBS and for Ba/F3 cells: RPMI with 10% FBS) in 96-well tissue culture plate. Leave outer wells without cells for background measurements. Incubate at 37 degree Celsius in 5% CO2 humidified incubator for 16-18 hours. • 2. Add 0.025 ml of 5X concentration compound dilution or DMSO control. Final compound concentration range is 10-0.0005 μM prepared in 3-fold serial dilutions. Incubate for 72 hr at 37 degree Celsius in 5% CO2 humidified incubator. • 3. Add 0.0125 ml Alamar Blue™ reagent to each well with multi-channel pipette and tap gently on each side of the plate to mix. Incubate for 3 hours at 37 degree Celsius in 5% CO2 humidified incubator. • 4. […] Data analysis was performed using XLfit 5.5.0.5.
In general terms: Resazurin is reduced to fluorescent resorufin, in cell work by metabolically active cells.

Assay [2] has as its system A431 cells. The assay is described as follows: Cellular proliferation (Alamar Blue) assay, A431 cells. Particulars: Homo sapiens, A-431, 72 h, A431 cells; 72 hr; Alamar Blue; read-out: A431 IC50. The method, then:
as §2

In assay [3] the target is EGFR (A767_dupASV) expressing Ba/F3 stable cell line (Homo sapiens, UniProt P00533, DUP767-769, cells depend on it). The assay is described as follows: Cellular proliferation (Alamar Blue) assay, EGFR (A767_dupASV) Ba/F3. Particulars: 72 hr, read-out: A767 IC50. How it is done: as §1, §2
Assay [4] deals with EGFR(D770_N771insSVD) expressing Ba/F3 stable cell line (Homo sapiens, UniProt P00533, DUP768-770, cells depend on it). In words: Cellular proliferation (Alamar Blue) assay, EGFR(D770_N771insSVD) Ba/F3. The note with it: 72 hr, read-out: D770 IC50. How it is done: as §1, §2

Counter-ions that a name gives are not always drawn. Bounds are passed on as bounds.

Chain of HER2 (A775_G776insYVMA) expressing Ba/F3 stable cell line (P04626 with tags, fused parts or gaps DUP772-775): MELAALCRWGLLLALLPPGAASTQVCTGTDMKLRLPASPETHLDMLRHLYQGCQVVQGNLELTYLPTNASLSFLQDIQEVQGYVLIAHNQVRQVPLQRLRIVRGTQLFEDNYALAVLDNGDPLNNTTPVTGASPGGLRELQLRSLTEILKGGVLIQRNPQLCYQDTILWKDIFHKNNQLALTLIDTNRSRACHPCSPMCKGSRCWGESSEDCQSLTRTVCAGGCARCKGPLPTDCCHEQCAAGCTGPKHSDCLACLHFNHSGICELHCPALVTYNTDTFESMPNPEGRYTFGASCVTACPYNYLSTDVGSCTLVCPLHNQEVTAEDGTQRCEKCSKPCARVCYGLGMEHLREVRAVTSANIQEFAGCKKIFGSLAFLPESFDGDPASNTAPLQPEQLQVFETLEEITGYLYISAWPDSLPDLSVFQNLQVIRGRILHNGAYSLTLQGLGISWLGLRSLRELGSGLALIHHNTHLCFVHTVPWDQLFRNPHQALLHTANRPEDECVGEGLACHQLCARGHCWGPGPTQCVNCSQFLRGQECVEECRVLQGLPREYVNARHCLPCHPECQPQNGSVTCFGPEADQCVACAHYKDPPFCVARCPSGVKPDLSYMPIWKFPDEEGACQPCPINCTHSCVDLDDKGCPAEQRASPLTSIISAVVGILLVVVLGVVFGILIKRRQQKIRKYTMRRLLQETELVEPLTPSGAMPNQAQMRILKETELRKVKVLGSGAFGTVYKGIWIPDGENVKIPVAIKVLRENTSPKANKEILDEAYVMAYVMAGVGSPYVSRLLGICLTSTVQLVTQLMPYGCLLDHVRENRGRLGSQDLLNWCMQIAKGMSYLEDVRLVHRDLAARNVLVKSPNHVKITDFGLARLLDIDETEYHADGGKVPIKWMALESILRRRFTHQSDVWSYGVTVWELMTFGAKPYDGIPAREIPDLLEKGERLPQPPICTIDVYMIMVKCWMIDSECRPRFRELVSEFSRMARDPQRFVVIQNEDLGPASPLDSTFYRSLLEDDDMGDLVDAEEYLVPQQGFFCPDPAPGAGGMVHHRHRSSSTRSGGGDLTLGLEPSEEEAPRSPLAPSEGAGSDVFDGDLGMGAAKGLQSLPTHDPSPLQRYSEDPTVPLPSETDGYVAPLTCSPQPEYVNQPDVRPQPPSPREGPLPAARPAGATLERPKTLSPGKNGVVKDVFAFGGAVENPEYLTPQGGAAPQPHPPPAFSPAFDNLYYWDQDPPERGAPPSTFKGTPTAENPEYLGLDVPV
Chain of EGFR (A767_dupASV) expressing Ba/F3 stable cell line (P00533 with tags, fused parts or gaps DUP767-769): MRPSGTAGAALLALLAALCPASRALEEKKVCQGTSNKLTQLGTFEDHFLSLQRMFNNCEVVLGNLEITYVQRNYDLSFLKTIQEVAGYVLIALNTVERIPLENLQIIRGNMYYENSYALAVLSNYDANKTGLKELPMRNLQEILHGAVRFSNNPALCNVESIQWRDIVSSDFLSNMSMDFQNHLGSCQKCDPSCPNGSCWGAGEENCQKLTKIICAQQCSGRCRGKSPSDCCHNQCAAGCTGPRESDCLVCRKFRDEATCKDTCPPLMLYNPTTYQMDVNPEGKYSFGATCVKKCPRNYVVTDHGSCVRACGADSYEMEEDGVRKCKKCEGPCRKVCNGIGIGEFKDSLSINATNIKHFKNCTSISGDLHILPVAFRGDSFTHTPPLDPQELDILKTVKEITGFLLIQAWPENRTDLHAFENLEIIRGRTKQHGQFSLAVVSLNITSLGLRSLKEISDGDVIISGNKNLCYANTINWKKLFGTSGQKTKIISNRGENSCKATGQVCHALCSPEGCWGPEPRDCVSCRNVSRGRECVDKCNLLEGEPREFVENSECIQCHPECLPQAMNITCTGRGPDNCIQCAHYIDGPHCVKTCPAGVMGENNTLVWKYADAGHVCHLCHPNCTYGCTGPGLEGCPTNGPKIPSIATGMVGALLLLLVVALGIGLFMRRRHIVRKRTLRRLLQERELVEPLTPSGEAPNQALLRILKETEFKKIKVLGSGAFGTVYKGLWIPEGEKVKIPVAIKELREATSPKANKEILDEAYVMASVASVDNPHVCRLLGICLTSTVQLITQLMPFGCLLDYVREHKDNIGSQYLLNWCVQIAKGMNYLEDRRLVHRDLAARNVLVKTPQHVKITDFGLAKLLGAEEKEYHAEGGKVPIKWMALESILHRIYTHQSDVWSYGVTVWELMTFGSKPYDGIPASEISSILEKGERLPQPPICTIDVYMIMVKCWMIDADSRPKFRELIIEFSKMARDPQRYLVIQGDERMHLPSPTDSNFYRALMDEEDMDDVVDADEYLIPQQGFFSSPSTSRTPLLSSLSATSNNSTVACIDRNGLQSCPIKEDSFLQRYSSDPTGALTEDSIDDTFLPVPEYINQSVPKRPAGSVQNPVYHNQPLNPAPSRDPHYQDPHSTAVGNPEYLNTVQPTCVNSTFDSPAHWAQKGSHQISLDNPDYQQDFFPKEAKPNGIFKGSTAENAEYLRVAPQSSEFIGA
Chain of EGFR(D770_N771insSVD) expressing Ba/F3 stable cell line (P00533 with tags, fused parts or gaps DUP768-770): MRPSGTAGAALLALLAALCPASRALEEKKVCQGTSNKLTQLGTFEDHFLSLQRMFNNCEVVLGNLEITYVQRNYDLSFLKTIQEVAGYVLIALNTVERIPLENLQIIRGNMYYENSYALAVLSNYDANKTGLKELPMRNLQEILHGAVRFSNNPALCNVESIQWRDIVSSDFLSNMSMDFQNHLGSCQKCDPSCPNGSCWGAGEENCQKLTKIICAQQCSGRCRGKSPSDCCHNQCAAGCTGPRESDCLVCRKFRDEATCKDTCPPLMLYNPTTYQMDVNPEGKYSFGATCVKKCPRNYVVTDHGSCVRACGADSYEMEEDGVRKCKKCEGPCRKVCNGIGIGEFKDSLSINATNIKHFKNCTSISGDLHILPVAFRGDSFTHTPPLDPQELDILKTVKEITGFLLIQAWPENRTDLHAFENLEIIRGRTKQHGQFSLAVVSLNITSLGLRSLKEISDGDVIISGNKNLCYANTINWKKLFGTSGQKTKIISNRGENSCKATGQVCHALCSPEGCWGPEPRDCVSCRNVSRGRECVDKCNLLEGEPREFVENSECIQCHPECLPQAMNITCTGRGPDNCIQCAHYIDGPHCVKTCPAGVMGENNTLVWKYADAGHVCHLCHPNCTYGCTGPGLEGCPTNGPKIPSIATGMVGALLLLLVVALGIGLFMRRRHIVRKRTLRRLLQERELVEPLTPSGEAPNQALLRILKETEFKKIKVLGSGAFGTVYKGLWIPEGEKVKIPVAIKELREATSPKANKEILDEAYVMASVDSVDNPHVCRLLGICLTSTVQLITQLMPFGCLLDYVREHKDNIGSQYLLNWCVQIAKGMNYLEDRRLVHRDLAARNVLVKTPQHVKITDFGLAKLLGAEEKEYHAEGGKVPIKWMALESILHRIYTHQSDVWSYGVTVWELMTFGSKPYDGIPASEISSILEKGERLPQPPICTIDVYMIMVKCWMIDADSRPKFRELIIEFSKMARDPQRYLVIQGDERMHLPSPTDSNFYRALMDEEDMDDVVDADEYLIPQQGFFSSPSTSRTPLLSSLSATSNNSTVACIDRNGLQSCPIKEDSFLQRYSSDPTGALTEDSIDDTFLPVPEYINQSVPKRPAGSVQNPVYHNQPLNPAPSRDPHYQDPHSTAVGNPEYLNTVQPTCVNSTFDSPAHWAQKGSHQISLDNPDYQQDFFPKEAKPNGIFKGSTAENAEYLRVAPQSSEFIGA

With `C=CC(=O)Nc1ccc(F)c(Nc2nc(Nc3cnn(C)c3)ncc2-c2cc(F)c(C(F)(F)F)c(F)c2)c1` [Compound 20, N-(3-((5-(3,5-difluoro-4-(trifluoromethyl)phenyl)-2-((1-methyl-1H-pyrazol-4-yl)amino)pyrimidin-4-yl)amino)-4-fluorophenyl)acrylamide trifluoroacetate], the GI50 in assay [1] came to 164 nM; in assay [3] it was 61 nM. In addition, the IC50 in assay [2] amounted to 13 nM.
Turning to `C=CC(=O)Nc1ccc(F)c(Nc2nc(Nc3cnn(C)c3)ncc2-c2cnc(C(F)(F)F)c(F)c2)c1` [Compound 61, N-(4-fluoro-3-((5-(5-fluoro-6-(trifluoromethyl)pyridin-3-yl)-2-((l-methyl-1H-pyrazol-4-yl)amino)pyrimidin-4-yl)amino)phenyl)acrylamide], the figures for the GI50 in assay [1] and in assay [3] were 37 nM and 11 nM, respectively.
Take `O=C(O)C(F)(F)F.[2H]C([2H])([2H])n1cc(Nc2ncc(-c3cnc(F)c(F)c3)c(Nc3cc(NC(=O)C=C)ccc3F)n2)cn1` [Compound 101, N-(3-((5-(5,6-difluoropyridin-3-yl)-2-((1-(methyl-d3)-1H-pyrazol-4-yl)amino)pyrimidin-4-yl)amino)-4-fluorophenyl)acrylamide]: in assay [4], the GI50 worked out at 15 nM.
As for `C=CC(=O)Nc1ccc(F)c(Nc2nc(Nc3cnn(C)c3)ncc2-c2ccc(F)cc2C(F)(F)F)c1` [Compound 107, N-(4-fluoro-3-((5-(4-fluoro-2-(trifluoromethyl)phenyl)-2-((1-methyl-1H-pyrazol-4-yl)amino)pyrimidin-4-yl)amino)phenyl)acrylamide], the GI50 in assay [1] is 7340 nM. In addition, the IC50 in assay [2] was determined as 3130 nM.
For `C=CC(=O)Nc1ccc(F)c(Nc2nc(Nc3cn(C)nc3Cl)ncc2-c2ccc(OC)c(OC)c2)c1` [Compound 110, N-(3-((2-((3-chloro-1-methyl-1H-pyrazol-4-yl)amino)-5-(3,4-dimethoxyphenyl)pyrimidin-4-yl)amino)-4-fluorophenyl)acrylamide] the same measures were 5780 nM and 819 nM.
Taken in the same sequence, the figures for `C=CC(=O)Nc1ccc(F)c(Nc2nc(Nc3cnn(C)c3)ncc2-c2ccc3c(c2)OCCO3)c1` [Compound 111, N-(3-((5-(2,3-dihydrobenzo[b][1,4]dioxin-6-yl)-2-((1-methyl-1H-pyrazol-4-yl)amino)pyrimidin-4-yl)amino)-4-fluorophenyl)acrylamide] were 1080 nM and 164 nM.
`C=CC(=O)Nc1ccc(F)c(Nc2nc(Nc3cnn(C)c3)ncc2-c2ccc(Br)cc2F)c1` [Compound 112, N-(3-((5-(4-bromo-2-fluorophenyl)-2-((1-methyl-1H-pyrazol-4-yl)amino)pyrimidin-4-yl)amino)-4-fluorophenyl)acrylamide]: the GI50 in assay [1] was 923 nM. For the same compound, the IC50 in assay [2] was found to be 497 nM.
For `C=CC(=O)Nc1ccc(F)c(Nc2nc(Nc3cnn(C)c3)ncc2-c2ccc3c(c2)OC(C)(C)O3)c1` [Compound 114, N-(3-((5-(2,2-dimethylbenzo[d][1,3]dioxol-5-yl)-2-((1-methyl-1H-pyrazol-4-yl)amino)pyrimidin-4-yl)amino)-4-fluorophenyl)acrylamide] the same measures were 4570 nM and 77 nM.
Take `C=CC(=O)Nc1ccc(F)c(Nc2nc(Nc3cnn(C)c3)ncc2-c2cc(OC)cc(OC)c2)c1` [Compound 116, N-(3-((5-(3,5-dimethoxyphenyl)-2-((1-methyl-1H-pyrazol-4-yl)amino)pyrimidin-4-yl)amino)-4-fluorophenyl)acrylamide]: in assay [1], the GI50 was greater than 10000 nM. Further, in assay [2], the IC50 is 3520 nM.
Taken in the same sequence, the figures for `C=CC(=O)Nc1ccc(F)c(Nc2nc(Nc3cnn(C)c3)ncc2-c2ccc(Br)c(C(F)F)c2)c1` [Compound 118, N-(3-((5-(4-bromo-3-(difluoromethyl)phenyl)-2-((1-methyl-1H-pyrazol-4-yl)amino)pyrimidin-4-yl)amino)-4-fluorophenyl)acrylamide] were 352 nM and 215 nM.
Taken in the same sequence, the figures for `C=CC(=O)Nc1ccc(F)c(Nc2nc(Nc3cnn(C)c3)ncc2-c2ccc(Br)c(N(C)C)c2)c1` [Compound 119, N-(3-((5-(4-bromo-3-(dimethylamino)phenyl)-2-((1-methyl-1H-pyrazol-4-yl)amino)pyrimidin-4-yl)amino)-4-fluorophenyl)acrylamide] were 5200 nM and 1160 nM.
For `C=CC(=O)Nc1ccc(F)c(Nc2nc(Nc3cnn(C)c3)ncc2-c2cc(F)cc(N3CCC3)c2)c1` [Compound 120, N-(3-((5-(3-(azetidin-1-yl)-5-fluorophenyl)-2-((1-methyl-1H-pyrazol-4-yl)amino)pyrimidin-4-yl)amino)-4-fluorophenyl)acrylamide] the same measures were greater than 10000 nM and 9280 nM.
Turning to `C=CC(=O)Nc1ccc(F)c(Nc2nc(Nc3cnn(C)c3)ncc2-c2cc(F)cc(N3CCCC3)c2)c1` [Compound 121, N-(4-fluoro-3-((5-(3-fluoro-5-(pyrrolidin-1-yl)phenyl)-2-((1-methyl-1H-pyrazol-4-yl)amino)pyrimidin-4-yl)amino)phenyl)acrylamide], the GI50 in assay [1] is greater than 10000 nM. The IC50 in assay [2] was greater than 10000 nM.
On to `C=CC(=O)Nc1ccc(F)c(Nc2nc(Nc3cnn(C)c3)ncc2-c2ccc(OCc3cccc(F)c3)c(Cl)c2)c1` [Compound 122, N-{3-[(5-{3-chloro-4-[(3-fluorophenyl)methoxy]phenyl}-2-[(1-methyl-1H-pyrazol-4-yl)amino]pyrimidin-4-yl)amino]-4-fluorophenyl}prop-2-enamide], for which the GI50 in assay [1] is 669 nM. Further, the IC50 in assay [2] came to 290 nM.
Taken in the same sequence, the figures for `C=CC(=O)Nc1ccc(F)c(Nc2nc(Nc3cnn(C)c3)ncc2-c2cc(F)cc(OC(C)C)c2)c1` [Compound 129, N-(4-fluoro-3-((5-(3-fluoro-5-isopropoxyphenyl)-2-((1-methyl-1H-pyrazol-4-yl)amino)pyrimidin-4-yl)amino)phenyl)acrylamide] were greater than 10000 nM and greater than 10000 nM.
Taken in the same sequence, the figures for `C=CC(=O)Nc1ccc(F)c(Nc2nc(Nc3cnn(C)c3)ncc2-c2cc(F)cc(OCC3CC3)c2)c1` [Compound 130, N-(3-((5-(3-(cyclopropylmethoxy)-5-fluorophenyl)-2-((1-methyl-1H-pyrazol-4-yl)amino)pyrimidin-4-yl)amino)-4-fluorophenyl)acrylamide] were greater than 10000 nM and greater than 10000 nM.
For `C=CC(=O)Nc1ccc(F)c(Nc2nc(Nc3cnn(C)c3)ncc2-c2ccc(Br)c(OC)c2)c1` [Compound 134, N-(3-((5-(4-bromo-3-methoxyphenyl)-2-((1-methyl-1H-pyrazol-4-yl)amino)pyrimidin-4-yl)amino)-4-fluorophenyl)acrylamide] the same measures were 453 nM and 238 nM.
For `Cn1cc(Nc2ncc(-c3ccc(Br)c(F)c3)c(Nc3cc(NC(=O)/C=C/CN4CCCCC4)ccc3F)n2)cn1` [Compound 142, (E)-N-(3-((5-(4-bromo-3-fluorophenyl)-2-((1-methyl-1H-pyrazol-4-yl)amino)pyrimidin-4-yl)amino)-4-fluorophenyl)-4-(piperidin-1-yl)but-2-enamide], in assay [1], the GI50 is 738 nM. Also, the IC50 in assay [2] was 301 nM.
For `COc1cc(F)cc(-c2cnc(Nc3cnn(C)c3)nc2Nc2cc(NC(=O)/C=C/CN(C)C)ccc2F)c1` [Compound 144, (E)-4-(dimethylamino)-N-(4-fluoro-3-((5-(3-fluoro-5-methoxyphenyl)-2-((1-methyl-1H-pyrazol-4-yl)amino)pyrimidin-4-yl)amino)phenyl)but-2-enamide] the same measures were 970 nM and 4880 nM.
Take `[2H]c1ccc(NC(=O)C=C)cc1Nc1nc(Nc2cnn(C)c2)ncc1-c1cc(F)cc(OC)c1` [Compound 145, N-(3-((5-(3-fluoro-5-methoxyphenyl)-2-((1-methyl-1H-pyrazol-4-yl)amino)pyrimidin-4-yl)amino)phenyl-4-d)acrylamide]: the GI50 in assay [1] is 264 nM. Moreover, the IC50 in assay [2] was 388 nM.
Consider `C=CC(=O)Nc1cccc(Nc2nc(Nc3cnn(C)c3)ncc2-c2cc(F)c(F)c(F)c2)c1` [Compound 148, N-(3-((2-((1-methyl-1H-pyrazol-4-yl)amino)-5-(3,4,5-trifluorophenyl)pyrimidin-4-yl)amino)phenyl)acrylamide], for which the GI50 in assay [1] was found to be 45 nM; in assay [4], 10 nM. In addition, the IC50 in assay [2] was 29 nM.
For `C=CC(=O)Nc1ccc(F)c(Nc2nc(Nc3cnn(C)c3)ncc2-c2cc(F)c(N(C)C)c(F)c2)c1` [Compound 156, N-(3-((5-(4-(dimethylamino)-3,5-difluorophenyl)-2-((1-methyl-1H-pyrazol-4-yl)amino)pyrimidin-4-yl)amino)-4-fluorophenyl)acrylamide], the GI50 in assay [1] is 309 nM. In addition, in assay [2], the IC50 is 19 nM.
